What was measured:
[1] = tested on: MOLM13; experiment: Cell growth inhibition, CellTiter-Glo Luminescent Cell Viability Assay, MOLM13; assay type: cell-based; conditions: MOLM13 cells, 4 days
Protocol: (§1) Cell growth inhibitory activity of representative Compounds of the Disclosure was determined using the CellTiter-Glo® Luminescent Cell Viability Assay. Cells were seeded in 384-well white opaque cell culture plates at a density of 2,000 cells/well with serially diluted compounds and incubated at 37° C. in an atmosphere of 95% air and 5% CO2 for 4 days. Cell viability was determined using the CellTiter-Glo® Luminescent Cell Viability Assay Kit (Promega, Madison, Wis.) according to the manufacture's instruction. Briefly, a volume of CellTiter-Glo® Reagent equal to the volume of cell culture medium was added to each well, and then the plates were incubated at room temperature for 10-20 minutes. The luminescent signal was measured using a Tecan Infinite M1000 multimode microplate reader (Tecan, Morrisville, N.C.). The half maximal inhibitory concentration (IC50) in Table 3 was calculated using the GraphPad Prism 5 software (GraphPad Software, La Jolla, Calif.).

[2] = tested on: MDA-MB-231; experiment: Cell growth inhibition, CellTiter-Glo Luminescent Cell Viability Assay, MDA-MB-231; assay type: cell-based; conditions: MDA-MB-231 cells, 4 days
Protocol: as §1

| SMILES | IC50 ([1]; Homo sapiens, MOLM-13, 96 h) [nM] | IC50 ([2]; Homo sapiens, MDA-MB-231, 96 h) [nM] | IC50 [1] [nM] | IC50 [2] [nM] |
| --- | --- | --- | --- | --- |
| Cc1c(C#Cc2cnn(CCCC(=O)OCCN3CCC(Nc4cccc5c4CN(C4CCC(=O)NC4=O)C5=O)CC3)c2)sc2c1C(c1ccc(Cl)cc1)=N[C@@H](C)c1nnc(C)n1-2 (stereo partly drawn) [Cpd. No. 11, 2-(4-((2-(2,6-dioxopiperidin-3-yl)-1-oxoisoindolin-4-yl)amino)piperidin-1-yl)ethyl 4-(4-(((S)-4-(4-chlorophenyl)-3,6,9-trimethyl-6H-thieno[3,2-f][1,2,4]triazolo[4,3-a][1,4]diazepin-2-yl)ethynyl)-1H-pyrazol-1-yl)butanoate] | 0.06 | 0.1 |  |  |
| Cc1c(C#Cc2cnn(CCCC(=O)OCCOCCCN3CCC(Nc4cccc5c4CN(C4CCC(=O)NC4=O)C5=O)CC3)c2)sc2c1C(c1ccc(Cl)cc1)=N[C@@H](CC(=O)N1CCN(C)CC1)c1nnc(C)n1-2 (stereo partly drawn) [compound 2, 2-(3-(4-((2-(2,6-dioxopiperidin-3-yl)-1-oxoisoindolin-4-yl)amino)piperidin-1-yl)propoxy)ethyl 4-(4-(((S)-4-(4-chlorophenyl)-3,9-dimethyl-6-(2-(4-methylpiperazin-1-yl)-2-oxoethyl)-6H-thieno[3,2-f][1,2,4]triazolo[4,3-a][1,4]diazepin-2-yl)ethynyl)-1H-pyrazol-1-yl)butanoate] | 7.5 | 19.4 |  |  |
| Cc1c(C#Cc2cnn(CC(=O)OCC#Cc3cccc4c3CN(C3CCC(=O)NC3=O)C4=O)c2)sc2c1C(c1ccc(Cl)cc1)=N[C@@H](C)c1nnc(C)n1-2 (stereo partly drawn) [compound 3, 3-(2-(2,6-dioxopiperidin-3-yl)-1-oxoisoindolin-4-yl)prop-2-yn-1-yl 2-(4-(((S)-4-(4-chlorophenyl)-3,6,9-trimethyl-6H-thieno[3,2-f][1,2,4]triazolo[4,3-a][1,4]diazepin-2-yl)ethynyl)-1H-pyrazol-1-yl)acetate] |  |  | 1.8 | 2.1 |
| Cc1c(C#Cc2cnn(CCCC(=O)OCCOCCOCCOCC#Cc3cccc4c3CN(C3CCC(=O)NC3=O)C4=O)c2)sc2c1C(c1ccc(Cl)cc1)=N[C@@H](CC(=O)N1CCN(C)CC1)c1nnc(C)n1-2 (stereo partly drawn) [compound 6, 2-(2-(2-((3-(2-(2,6-dioxopiperidin-3-yl)-1-oxoisoindolin-4-yl)prop-2-yn-1-yl)oxy)ethoxy)ethoxy)ethyl 4-(4-(((S)-4-(4-chlorophenyl)-3,9-dimethyl-6-(2-(4-methylpiperazin-1-yl)-2-oxoethyl)-6H-thieno[3,2-f][1,2,4]triazolo[4,3-a][1,4]diazepin-2-yl)ethynyl)-1H-pyrazol-1-yl)butanoate] | 2.8 | 32 |  |  |
| Cc1c(C#Cc2cnn(CCCC(=O)OCCCOCCN3CCC(Nc4cccc5c4CN(C4CCC(=O)NC4=O)C5=O)CC3)c2)sc2c1C(c1ccc(Cl)cc1)=N[C@@H](CC(=O)N1CCN(C)CC1)c1nnc(C)n1-2 (stereo partly drawn) [compound 7, 3-(2-(4-((2-(2,6-dioxopiperidin-3-yl)-1-oxoisoindolin-4-yl)amino)piperidin-1-yl)ethoxy)propyl 4-(4-(((S)-4-(4-chlorophenyl)-3,9-dimethyl-6-(2-(4-methylpiperazin-1-yl)-2-oxoethyl)-6H-thieno[3,2-f][1,2,4]triazolo[4,3-a][1,4]diazepin-2-yl)ethynyl)-1H-pyrazol-1-yl)butanoate] | 9.6 | 4.5 |  |  |
| Cc1c(C#Cc2cnn(CCCC(=O)OCCCOCCN3CCC(Nc4cccc5c4CN(C4CCC(=O)NC4=O)C5=O)CC3)c2)sc2c1C(c1ccc(Cl)cc1)=N[C@@H](C)c1nnc(C)n1-2 (stereo partly drawn) [compound 8, 3-(2-(4-((2-(2,6-dioxopiperidin-3-yl)-1-oxoisoindolin-4-yl)amino)piperidin-1-yl)ethoxy)propyl 4-(4-(((S)-4-(4-chlorophenyl)-3,6,9-trimethyl-6H-thieno[3,2-f][1,2,4]triazolo[4,3-a][1,4]diazepin-2-yl)ethynyl)-1H-pyrazol-1-yl)butanoate] | 1.1 | 1.3 |  |  |
| Cc1c(C#Cc2cnn(CCCC(=O)OCCN3CCC(Nc4cccc5c4CN(C4CCC(=O)NC4=O)C5=O)CC3)c2)sc2c1C(c1ccc(Cl)cc1)=N[C@@H](CC(=O)N1CCN(C)CC1)c1nnc(C)n1-2 (stereo partly drawn) [compound 12, 2-(4-((2-(2,6-dioxopiperidin-3-yl)-1-oxoisoindolin-4-yl)amino)piperidin-1-yl)ethyl 4-(4-(((S)-4-(4-chlorophenyl)-3,9-dimethyl-6-(2-(4-methylpiperazin-1-yl)-2-oxoethyl)-6H-thieno[3,2-f][1,2,4]triazolo[4,3-a][1,4]diazepin-2-yl)ethynyl)-1H-pyrazol-1-yl)butanoate] | 0.05 | 0.08 |  |  |
| Cc1nnc2n1-c1sc(C#Cc3cnn(CCCOC(=O)CCc4cccc5c4CN(C4CCC(=O)NC4=O)C5=O)c3)c(Cc3ccccc3)c1COC2 (centres unmarked) [compound 17, 3-(4-((3-benzyl-9-methyl-4H,6H-thieno[2,3-e][1,2,4]triazolo[3,4-c][1,4]oxazepin-2-yl)ethynyl)-1H-pyrazol-1-yl)propyl 3-(2-(2,6-dioxopiperidin-3-yl)-1-oxoisoindolin-4-yl)propanoate] | 1.8 | 39 |  |  |
| Cc1nnc2n1-c1sc(C#Cc3cnn(CCCC(=O)OCCOCCOCCOCCOc4cccc5c4CN(C4CCC(=O)NC4=O)C5=O)c3)c(Cc3ccccc3)c1COC2 (centres unmarked) [compound 22, 2-(2-(2-(2-((2-(2,6-dioxopiperidin-3-yl)-1-oxoisoindolin-4-yl)oxy)ethoxy)ethoxy)ethoxy)ethyl 4-(4-((3-benzyl-9-methyl-4H,6H-thieno[2,3-e][1,2,4]triazolo[3,4-c][1,4]oxazepin-2-yl)ethynyl)-1H-pyrazol-1-yl)butanoate] | 5.2 | 185 |  |  |

Other lines, results leading:

| IC50 ([1]; Homo sapiens, MOLM-13, 96 h) [nM] | IC50 ([2]; Homo sapiens, MDA-MB-231, 96 h) [nM] | IC50 [1] [nM] | IC50 [2] [nM] | SMILES |
| --- | --- | --- | --- | --- |
| 2.1 | 77.9 |  |  | Cc1nnc2n1-c1sc(C#Cc3cnn(CCCC(=O)OCOCCCOc4cccc5c4CN(C4CCC(=O)NC4=O)C5=O)c3)c(Cc3ccccc3)c1COC2 (centres unmarked) [compound 23, (3-((2-(2,6-dioxopiperidin-3-yl)-1-oxoisoindolin-4-yl)oxy)propoxy)methyl 4-(4-((3-benzyl-9-methyl-4H,6H-thieno[2,3-e][1,2,4]triazolo[3,4-c][1,4]oxazepin-2-yl)ethynyl)-1H-pyrazol-1-yl)butanoate] |
| 2.4 | 7.3 |  |  | Cc1nnc2n1-c1sc(C#Cc3cnn(CCCC(=O)OCCCN4CCC(Nc5cccc6c5CN(C5CCC(=O)NC5=O)C6=O)CC4)c3)c(Cc3ccccc3)c1COC2 (centres unmarked) [compound 25, 3-(4-((2-(2,6-dioxopiperidin-3-yl)-1-oxoisoindolin-4-yl)amino)piperidin-1-yl)propyl 4-(4-((3-benzyl-9-methyl-4H,6H-thieno[2,3-e][1,2,4]triazolo[3,4-c][1,4]oxazepin-2-yl)ethynyl)-1H-pyrazol-1-yl)butanoate] |
| 0.2 | 2 |  |  | Cc1nnc2n1-c1sc(C#Cc3ccn(CCC(=O)OCCC#Cc4cccc5c4CN(C4CCC(=O)NC4=O)C5=O)n3)c(Cc3ccccc3)c1COC2 (centres unmarked) [compound 28, 4-(2-(2,6-dioxopiperidin-3-yl)-1-oxoisoindolin-4-yl)but-3-yn-1-yl 3-(3-((3-benzyl-9-methyl-4H,6H-thieno[2,3-e][1,2,4]triazolo[3,4-c][1,4]oxazepin-2-yl)ethynyl)-1H-pyrazol-1-yl)propanoate] |
| 0.3 | 9.8 |  |  | Cc1nnc2n1-c1sc(C#Cc3ccn(CCC(=O)OCCCCc4cccc5c4CN(C4CCC(=O)NC4=O)C5=O)n3)c(Cc3ccccc3)c1COC2 (centres unmarked) [compound 29, 4-(2-(2,6-dioxopiperidin-3-yl)-1-oxoisoindolin-4-yl)butyl 3-(3-((3-benzyl-9-methyl-4H,6H-thieno[2,3-e][1,2,4]triazolo[3,4-c][1,4]oxazepin-2-yl)ethynyl)-1H-pyrazol-1-yl)propanoate] |
